We go through 8 molecules from patent publication EP0013786A1, “Imidazole derivatives, pharmaceutical compositions containing them and their preparation” (SYNTEX (U.S.A.) INC., priority 1979, dated 1980).

For orientation: ED50 means the midpoint of the dose-response relation. A word on the LD50: it is the dose at which mortality reaches 50%. A higher LD50 goes with a less toxic substance.

The first series relates to male Hilltop ICR-derived mice. Kind of series: Maximal electroshock test in mice. Format: in vivo. The conditions noted are these: Mus musculus, ip, 0.25 h; dosed intraperitoneally in saline 15 minutes prior to transcorneal maximal electroshock (50 milliamps, 0.2 seconds); antagonism of tonic extension; read-out: ED50 (95% confidence limits). The method, then: This test was performed in the standard manner, essentially as described by Swinyard et al., J. Pharm. Exp. Ther., Vol. 106, pp. 319-330 (1952). Groups of 8-10 male Hilltop ICR-derived mice weighing 20-30 grams were dosed intraperitoneally with a solution or suspension of drug in saline 15 minutes prior to a transcorneal maximal electroshock (50 milli- amps, 0.2 seconds). […] An active compound was capable of antagonizing the occurrence of the tonic extension which occurred immediately after the electroshock.
Background: In the maximal electroshock model the usual endpoint is tonic extension of the hind limbs.
With `CSC(Cn1ccnc1)c1ccc2ccccc2c1` (stereo not drawn) [1-[2-(2-naphthyl)-2-(methylthio)ethyl]imidazole], the ED50 stood at 37.1 mg/kg. The same measure, in the same setting: to `CCCCOC(Cn1ccnc1)c1cccc2ccccc12` (stereo not drawn) [1-[2-(1-naphthyl)-2-(n-butoxy)ethyl]imidazole] belongs 16 mg/kg. On the same count and under the same terms, to `CCOC(Cn1ccnc1)c1ccc2ccccc2c1` (stereo not drawn) [1-[2-(2-naphthyl)-2-(ethoxy)ethyl]imidazole] belongs 11.4 mg/kg; to `Cl.Clc1ccc(OC(Cn2ccnc2)c2ccc3ccccc3c2)cc1` (stereo not drawn) [1[2-(2-naphthyl)-2-(4-chlorophenoxy)ethyl]imidazole hydrochloride], 46.3 mg/kg.

`COC(Cn1ccnc1)c1cccc2ccccc12` (stereo not drawn) [1-[2-(1-naphthyl)-2-(methoxy)ethyl]imidazole]: the ED50 is 19.4 mg/kg.

Consider `Cc1ccccc1OC(Cn1ccnc1)c1ccc2ccccc2c1` (stereo not drawn) [1-[2-(2-naphthyl)-2-(2-methylphenoxy)ethyl]imidazole], for which the ED50 came out at 32.6 mg/kg. The same measure, in the same setting: to `c1ccc(OC(Cn2ccnc2)c2ccc3ccccc3c2)cc1` (stereo not drawn) [1-[2-(2-naphthyl)-2-(phenoxy)ethyl]imidazole] belongs 15.1 mg/kg. On the same count and under the same terms, the same measure for `COC(Cn1ccnc1)c1ccc2ccccc2c1.Cl` (stereo not drawn) [1-[2-(2-naphthyl)-2-(methoxy)ethyl]imidazole hydrochloride]: 10.4 mg/kg.

Tested on in a further series: not listed separately
Kind of series: Acute oral toxicity in mice. The conditions noted are these: mouse, in vivo; single oral dose by stomach tube, aqueous carboxymethyl cellulose vehicle, observed for three weeks. The method, then: The following example illustrates acute oral toxicity of a representative compound.
Protocol: The test compound, l-[2-(2-naphthyl)-2-(methoxy)ethyl'imidazole hydrochloride, is suspended in an aqueous carboxymethyl cellulose suspending vehicle. Concentrations are adjusted so that doses can be given in volumes of 10 ml./kg. body weight. Groups of mice comprising six Swiss-Webster male mice in each group are used. A single oral dose, by stomach tube, of a final dosage of test compound is administered to the mice in each group. Each group receives a different dosage, one group serving as a control. After administration the mice are observed for a three week period.
In turn, `COC(Cn1ccnc1)c1ccc2ccccc2c1.Cl` (stereo not drawn) [1-[2-(2-naphthyl)-2-(methoxy)ethyl]imidazole hydrochloride] had an LD50 at 504 h of around 100 mg/kg.
